The record followed here is patent US20240293511A1, “HEPCIDIN MIMETICS FOR TREATMENT OF HEREDITARY HEMOCHROMATOSIS” (Protagonist Therapeutics, Inc., priority 2021, published 2024).

This series deals with HH patients. The series is described as follows: Phase 2 open-label dose-finding study in hereditary hemochromatosis patients. Format: in vivo, human. How it is done: A clinical efficacy study was conducted in HH patients. Subjects received subcutaneous Compound 25 for up to 24 weeks. Subjects were started at an initial dose of 10 mg per week subcutaneously. The dose was increased to 20 mg per week, and subsequently to 40 mg and to 80 mg per week as needed, based on tolerability and the pharmacodynamic marker TSAT. In addition, subcutaneous dosing schedules of 10 mg, 20 mg, 30, and 40 mg twice weekly (Day 1 and either Day 4 or Day 5 were tested). The majority of patients were administered doses of 20 mg per week or less. Subjects' safety and blood iron parameters (serum iron, serum ferritin, transferrin, and TSAT) were collected to monitor the pharmacodynamic effect of Compound 25. Effects on phlebotomy need and QoL data (36-Item Short Form Health Survey [SF-36], and Patient's Global Impression of Change [PGI-C]) were also be collected and tabulated.
Individual subject's dose and schedule were determined based on the pharmacodynamic (PD) marker TSAT measured at two time points following dosing: once at peak PD effect one day post dose and once at trough PD effect. […] The trough PD effect was the TSAT value measured 7 days after the Compound 25 dose (and before the next dose) for once weekly dosing or 7 days after the first dose in a week for twice weekly dosing. […] To facilitate dose escalation and the identification of a therapeutic dose, investigators assessed TSAT values on days subjects came to the clinic for any dose adjustments.
Methods: This single-arm, open-label, dose-finding phase 2 study investigated subcutaneous hepcidin mimetic (Compound 25) in patients (pts) with confirmed HH who were on documented stable phlebotomies (phl) for at least 6 months (mos) prior to treatment with a phl frequency of 0.25-1 per month. […] Endpoints included TSAT, serum iron, serum transferrin and serum ferritin, liver iron content (LIC) measured by FerriScan MRI, adverse events, and patient-reported outcomes on the Patient Global Impression of change (PGI-C) and Medical Outcome Study Questionnaire Short Form Health Survey (SF-36). […]

Turning to `CCCCCCCCCCCCCCCC(=O)N[C@@H](CCC(=O)NCCCC[C@@H]1NC(=O)[C@H]([C@@H](C)CC)NC(=O)[C@@H](NC(=O)[C@@H]2CCCN2C(=O)[C@H](Cc2ccccc2)NC(=O)[C@H](Cc2c[nH]cn2)NC(=O)[C@@H](NC(=O)[C@H](CC(=O)O)NC(=O)CC(C)C)[C@@H](C)O)CSSC[C@@H](C(=O)N[C@@H](CCCCN)C(N)=O)NC(=O)CNC(=O)[C@H](CCCCN)NC(=O)[C@H](CO)NC(=O)[C@H](CCCNC(=N)N)NC(=O)[C@@H]2CCCN2C(=O)[C@H](CCC(=O)O)NC(=O)[C@H](Cc2ccccc2)NC1=O)C(=O)O` [Compound 25, Isovaleric acid-DTHFPCI(K(isoGlu-Palm))FEPRSKGCK-NH2], the tolerability result (HH patients, subcutaneous, up to 24 weeks) is given as “generally well tolerated”. In addition, the “treatment-related adverse events, severity” value (all treatment-related adverse events) is “CTCAE grade 1 or 2”. Moreover, under “human, in vivo”, the “hematological parameters (hematocrit, erythrocytes, leucocytes, platelets)” value is recorded as “no notable changes”.
